Results from patent publication US20210403567A1, “METHODS OF TREATING CERVICAL CANCER BY ADMINISTERING A PD-1 INHIBITOR” (priority 2020, published 2021).
Values joined by “and” are separate entries in the source; they are usually repeats but may differ in a detail not shown here. Equal values may be shown once. Read-outs that look alike come from different tables or passages of the source.

What was measured:
[1] = test system: recurrent or metastatic cervical cancer that has progressed after platinum-containing chemotherapy; assay: Phase 3 trial, cemiplimab 350 mg IV Q3W versus investigator's choice (IC) chemotherapy: OS, PFS, ORR, DOR; conditions: for OS Hazard Ratio (95% CI): AC (non-SCC); for OS Hazard Ratio (95% CI) / OS subgroup analysis, Hazard Ratio (95% CI) / PFS HR (95% CI): cemiplimab vs chemotherapy; for Median OS (95% CI) / Median PFS (95% CI): Kaplan-Meier; for PFS Hazard Ratio (95% CI): cemiplimab vs chemo;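 for all read-outs here: randomized trial arms, OS counted from randomization until death with censoring at last contact, PFS until first RECIST 1.1 progression or death from any cause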
[2] = Grade 3-5, cemiplimab N=300, chemotherapy N=290
[3] = any grade, cemiplimab N=300, chemotherapy N=290
[4] = AC, cemiplimab N=65, chemo N=66
[5] = Example 3 analysis, total population
[6] = Example 4 updated, AC, listed as cemiplimab

cemiplimab
Sponsor-identified immune-related AEs: Led to death [2]: 0 n (%)
Treatment-emergent AEs that led to death [2]: 5 (1.7) n (%)
Treatment-related AEs: Led to death [2]: 0 n (%)
Number of patients with any TEAE resulting in death [3]: 5 n (%) and 5 (1.7) n (%)
Sponsor-identified immune-related AEs: Led to death [3]: 0 n (%)
Treatment-related AEs: Led to death [3]: 0 n (%)
AEs observed, patients (in vivo): 88%
Grade 3 or higher AEs, patients (in vivo): 45%
Number of NCI grade 3/4/5 TEAEs (in vivo): 299
Number of TEAEs (in vivo): 1969
Number of patients with any TEAE leading to a dose interruption/delay (in vivo): 75 n (%)
Number of patients with any TEAE leading to a dose reduction (in vivo): 0 n (%)
Number of patients with any serious TEAE (in vivo): 89 n (%)
Number of serious TEAEs (in vivo): 147
Treatment-emergent AEs that led to discontinuation (in vivo): 20 (6.7) n (%)
anemia, patients (in vivo): 25%
asthenia, patients (in vivo): 2%
constipation, patients (in vivo): 15%
decreased appetite, patients (in vivo): 15%
fatigue, patients (in vivo): 17%
nausea, patients (in vivo): 18%
pyrexia, patients (in vivo): less than 1%
vomiting, patients (in vivo): 16%
ORR ([1]; AC): 12.3% and 12%
OS Hazard Ratio (95% CI) [1]: 0.556 (0.363, 0.853) and 0.56 (0.36-0.85)
OS Hazard Ratio (95% CI) ([1]; listed as cemiplimab): 0.56
Estimated Event-Free Probability (PFS), % (95% CI) ([1]; AC, 6 months): 30.1 (19.3, 41.6) %
Estimated Survival Probability, % (95% CI) ([1]; AC, 6 months): 69.6 (56.5, 79.4) %
Estimated Event-Free Probability (PFS), % (95% CI) ([1]; AC, 12 months): 10.6 (4.4, 20.0) %
Estimated Survival Probability, % (95% CI) ([1]; AC, 12 months): 57.4 (43.9, 68.7) %
Estimated Event-Free Probability (PFS), % (95% CI) ([1]; AC, 18 months): 8.5 (3.0, 17.6) %
Estimated Survival Probability, % (95% CI) ([1]; AC, 18 months): 34.2 (21.5, 47.3) %
Estimated Event-Free Probability (PFS), % (95% CI) ([1]; AC, 24 months): 8.5 (3.0, 17.6) %
Estimated Survival Probability, % (95% CI) ([1]; AC, 24 months): 19.5 (8.4, 34.1) %
Median OS (95% CI) ([1]; AC): 13.3 (9.6, 17.6) months
Median OS (95% CI) ([1]; AC, listed as cemiplimab): 13.3 months
Best Overall Tumor Response: Complete Response (CR) [1, 4]: 3 (4.6%) n (%)
Best Overall Tumor Response: Not Evaluable (NE) [1, 4]: 6 (9.2%) n (%)
Best Overall Tumor Response: Partial Response (PR) [1, 4]: 5 (7.7%) n (%)
Best Overall Tumor Response: Progressive Disease (PD) [1, 4]: 19 (29.2%) n (%)
OS: Number of censored patients [1, 4]: 24 (36.9%) n (%)
Objective Response Rate (ORR: CR + PR) [1, 4]: 8 (12.3%) n (%)
Reduced risk of death (vs. chemotherapy) ([1]; AC, post-hoc): 44%
Reduced risk of death (vs. chemotherapy) ([1]; AC, post-hoc, listed as cemiplimab): 44%
OS subgroup analysis, Hazard Ratio (95% CI) ([1]; ECOG status per IWRS: 0): 0.59 (0.43-0.82)
OS subgroup analysis, Hazard Ratio (95% CI) ([1]; ECOG status per IWRS: 1): 0.74 (0.57-0.96)
PFS: Number of events ([1]; Example 3 analysis, Adeno, cemiplimab N=65, chemo N=66): 55 (84.6%) n (%)
PFS Hazard Ratio (95% CI) ([1]; Example 3 analysis, Adeno): 0.849 (0.574, 1.255)
Median PFS in month (95% CI) ([1]; Example 3 analysis, SCC): 2.8 (2.6, 4.0) month
PFS: Number of censored patients ([1]; Example 3 analysis, SCC): 53 (22.2%) n (%)
PFS: Number of deaths ([1]; Example 3 analysis, SCC): 25 (10.5%) n (%)
PFS: Progressive Disease ([1]; Example 3 analysis, SCC): 161 (67.4%) n (%)
Reduced risk of progression (vs. chemotherapy) ([1]; Example 3 analysis, SCC): 31%
PFS Hazard Ratio (95% CI) ([1]; Example 3 analysis, SCC): 0.686 (0.559, 0.843)
Median PFS in month (95% CI) [1, 5]: 2.8 (2.6, 3.9) month
PFS: Number of censored patients [1, 5]: 63 (20.7%) n (%)
PFS: Number of deaths [1, 5]: 31 (10.2%) n (%)
PFS: Progressive Disease [1, 5]: 210 (69.1%) n (%)
Reduced risk of progression (vs. chemotherapy) [1, 5]: 28%
PFS: Number of events ([1]; Example 3 analysis, total population, N=304 per arm): 241 (79.3%) n (%)
PFS Hazard Ratio (95% CI) [1, 5]: 0.719 (0.599, 0.862)
PFS: Number of censored patients ([1]; Example 4 updated, AC): 9 (13.8%) n (%)
PFS: Number of deaths ([1]; Example 4 updated, AC): 7 (10.8%) n (%)
PFS: Progressive Disease ([1]; Example 4 updated, AC): 49 (75.4%) n (%)
reduction in the risk of disease progression ([1]; Example 4 updated, AC, post-hoc, vs chemotherapy): 9%
Median PFS (95% CI) ([1]; Example 4 updated, AC): 2.7 (2.3, 4.0) months
Median PFS (95% CI) [1, 6]: 2.7 months
PFS: Number of events ([1]; Example 4 updated, AC, cemiplimab N=65, chemo N=66): 56 (86.2%) n (%)
PFS HR (95% CI) ([1]; Example 4 updated, AC): 0.912 (0.623, 1.335)
PFS HR (95% CI) [1, 6]: 0.91
